Experimental data: patent publication US20130236441A1, “METHODS OF TREATING AND PREVENTING THROMBOTIC DISEASES USING ASK1 INHIBITORS” (University of Delaware, priority 2010, published 2013)

How the values were obtained:
[1] = tested on: WT or Ask1−/− mouse platelets; assay: 14C-serotonin release (dense granule secretion) from agonist-stimulated mouse platelets; format: cell-based; conditions: aspirin pretreatment
Procedure: (A) ^14C-serotonin-labeled platelets (2.5×10^8 per ml) from Ask1^+/+ and Ask1^−/− mice were stimulated with various concentration of thrombin for 5 min, and the ^14C-serotonin release was determined using a liquid scintillation counter. (B) Platelets from Ask1^+/+ and Ask1^−/− mice were stimulated with various concentrations of thrombin for 5 min and P-selectin exposure on the platelet surface was determined using flow cytometry. Granular secretion was assessed using WT or Ask1−/− mouse platelets in response to low and high dose of agonists such as thrombin (FIG. 7A) and thrombin/PAR4-peptide (AYPGKF) (FIG. 7B). Dense granule secretion was analyzed by measuring ^14C-serotonin release (FIG. 7A). α-granule secretion was assessed by P-selectin exposure using flow cytometry (FIG. 7B). Ask1 regulated a significant portion of dense granule secretion induced by high dose of thrombin (FIG. 7A). Similar results were obtained when P-selectin exposure was assessed as a measure of α-granule secretion (FIG. 7B).

ASK1 = ASK1 T838 phosphorylation in thrombin-stimulated washed human platelets (Western blot); format: cell-based; conditions: thrombin 0.05 U-1 U/ml
Procedure: Washed human platelets (2×10^8) were stimulated with thrombin (1 U/ml) for various time periods as indicated, and the lysates were Western blotted using phospho-specific antibodies against (A) ASK1, (B) MKK3 and P38, and (C) MKK4, and reprobed with corresponding antibodies against total proteins (Cell Signaling Technology, Inc.) to ensure relatively equal loading of ASK1, MKK3, P38 or MKK4 protein in each of its respective lanes.
A study was carried out to determine whether ASK1 was activated during agonist-induced platelet stimulation. A well-characterized antibody specific to the phosphorylated threonine 838 (T838) of ASK1 was used. […] Upon stimulation with as low as 0.05 U-1 U/ml of thrombin, ASK1 was activated rapidly and transiently as evidenced by phosphorylation of T838 (FIG. 3A). In a low percentage SDS-PAGE, ASK1 appeared as a doublet.

Molecule | amount of serotonin released ([1]; Ask1−/− platelets) | amount of serotonin released ([1]; WT platelets) | ASK1 activation (phosphorylation of T838) (ASK1)
CC(=O)Oc1ccccc1C(=O)O [aspirin] | no effect | reduced the amount of serotonin released to that of Ask1−/− platelets | –
thrombin | – | – | dose-dependently activated
